This is an account of results in ChEMBL document CHEMBL4385620, “Inhibition of polypeptide N-acetyl-α-galactosaminyltransferases is an underlying mechanism of dietary polyphenols preventing colorectal tumorigenesis” (Bioorg Med Chem, 2019).

The source made the active and inactive calls. The calls are words filed in the database; no cut-off is given here.

Broadly, the IC50 is the concentration needed to halve the response being measured. Broadly, the Kd is the constant that tells how readily two partners part at equilibrium. In general, kon refers to a measure of how fast the partners come together.

The target of experiment [1] is T1, Polypeptide N-acetylgalactosaminyltransferase 2 (Homo sapiens, UniProt Q10471). The experiment is described as follows: Inhibition of catalytic activity of human recombinant FLAG-tagged ppGalNAcT2 expressed in HEK293T cells and using 5-FAM labelled-EA2 peptide as substrate incubated for 30 mins by HPLC-based enzyme assay.
T1 sequence (Q10471 whole entry): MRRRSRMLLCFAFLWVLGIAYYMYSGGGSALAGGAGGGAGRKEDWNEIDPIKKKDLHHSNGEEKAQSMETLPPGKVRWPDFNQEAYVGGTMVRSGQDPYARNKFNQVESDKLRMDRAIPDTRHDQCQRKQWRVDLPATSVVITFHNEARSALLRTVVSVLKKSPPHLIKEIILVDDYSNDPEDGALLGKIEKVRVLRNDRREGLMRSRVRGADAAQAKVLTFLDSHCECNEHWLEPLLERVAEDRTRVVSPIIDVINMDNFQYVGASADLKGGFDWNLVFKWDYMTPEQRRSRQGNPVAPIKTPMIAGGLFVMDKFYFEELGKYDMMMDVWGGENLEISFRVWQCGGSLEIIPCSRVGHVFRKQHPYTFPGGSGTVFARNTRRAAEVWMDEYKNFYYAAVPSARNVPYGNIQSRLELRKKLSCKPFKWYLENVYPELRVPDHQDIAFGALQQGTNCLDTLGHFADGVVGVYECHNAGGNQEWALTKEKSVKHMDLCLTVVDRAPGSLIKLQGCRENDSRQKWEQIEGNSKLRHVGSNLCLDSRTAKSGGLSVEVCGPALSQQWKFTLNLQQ
Experiment [2] concerns the target T1, Polypeptide N-acetylgalactosaminyltransferase 2. The experiment can be described thus: Binding affinity of human recombinant FLAG-tagged ppGalNAcT2 expressed in HEK293 cells assessed as dissociation constant by SPR analysis. In general terms: SPR reads the build-up and loss of mass on a sensor chip optically.
Experiment [3] shares this target. The experiment is described as follows: Binding affinity of human recombinant FLAG-tagged ppGalNAcT2 expressed in HEK293 cells assessed as association rate by SPR analysis.
For experiment [4] the target is unchanged. The experiment is described as follows: Binding affinity of human recombinant FLAG-tagged ppGalNAcT2 expressed in HEK293 cells assessed as dissociation rate by SPR analysis.
Experiment [5] addresses Polypeptide N-acetylgalactosaminyltransferase 2 (Homo sapiens, UniProt Q10471, W282A). The experiment is described as follows: Inhibition of catalytic activity of human recombinant FLAG-tagged ppGalNAcT2 W282A mutant expressed in HEK293 cells using EA2 peptide as substrate by HPLC-based enzyme assay.
The species named for a further experiment is Homo sapiens. The experiment is described as follows: Ratio of IC50 for IC50 for human recombinant FLAG-tagged ppGalNAcT2 W282A mutant to IC50 for human recombinant FLAG-tagged ppGalNAcT2.
In experiment [6] the target is T1, Polypeptide N-acetylgalactosaminyltransferase 2. The experiment can be described thus: Inhibition of ppGalNAcT2 in human HT-29 cells assessed as reduction in O-GalNAc glycans by measuring PNA lectin signal on cell surface at 40 uM incubated for 48 hrs by DAPI staining based immunofluorescence method.

Polypeptide N-acetylgalactosaminyltransferase 2 (Homo sapiens, UniProt Q10471, W282A), sequence (Q10471 whole entry W282A): as the sequence (Q10471 whole entry) above, with W282A counted along it

`O=c1oc2cc(O)ccc2c2ccccc12`: the IC50 in experiment [1] is over 100000 nM.

For the compound `O=c1oc2c(O)c(O)cc3c(=O)oc4c(O)c(O)cc1c4c23` [ELLAGIC ACID], the IC50 in experiment [1] was found to be 510 nM; in experiment [5] it was 2930 nM. In experiment [2], the dissociation constant Kd was found to be 371 nM. Besides, the kon in experiment [3] came out at 2367 M⁻¹ s⁻¹. In experiment [4], the koff was 8.79 ×10⁻⁴ /s. For the same compound, in the experiment listed under Homo sapiens, the Ratio IC50 is 6. In addition, the inhibition result in experiment [6] was “Active”.

Consider `c1cc2ccc3cccc4ccc(c1)c2c34` [PYRENE], for which the 50% inhibitory concentration (IC50) in experiment [1] is over 100000 nM. In addition, the inhibition entry in experiment [6] is “inactive”.

With `O=C(O)c1cc(O)c(O)c(O)c1` [GALLIC ACID], in experiment [1], the 50% inhibitory concentration (IC50) amounted to 1370 nM. The dissociation constant Kd in experiment [2] was 924 nM. The association rate constant (kon) in experiment [3] was found to be 1454 M⁻¹ s⁻¹. The koff in experiment [4] is 1.34 ×10⁻³ /s.

Turning to `COc1c(O)cc2c(=O)oc3c(OC)c(O)cc4c(=O)oc1c2c34`, the concentration for half-maximal inhibition (IC50) in experiment [1] was over 100000 nM.
